“Also recorded” adds a separate entry of the source. Non-standard residues stand in square brackets, D forms with d. Residues, ends and D or L forms follow the SMILES beside them. Primed or numbered codes have the meaning given here. No end group written: not given here. PEG4′ = PEG linker of 4 PEG units; PEG4 = NCCOCCOCCOCCOCCC(=O)O
Assays:
[1] = target: T1, interaction between LAG3 and MHC-II (Homo sapiens, UniProt P18627); assay: HTRF (TR-FRET) LAG3/MHC-II binding assay; details: for response in dilution curve (HTRF signal): 10-fold dilutions starting at 100 μM or 10 μM, FIGS. 2A-9B; for IC50: LAG3:MHCII TR-FRET full dilution curves; for effect on HTRF signal: tested at 100 μM, 10 μM, and 1 μM, FIG. 1
T1 construct: purchased Cisbio US Inc
T1 sequence (P18627 23-450 limits assumed): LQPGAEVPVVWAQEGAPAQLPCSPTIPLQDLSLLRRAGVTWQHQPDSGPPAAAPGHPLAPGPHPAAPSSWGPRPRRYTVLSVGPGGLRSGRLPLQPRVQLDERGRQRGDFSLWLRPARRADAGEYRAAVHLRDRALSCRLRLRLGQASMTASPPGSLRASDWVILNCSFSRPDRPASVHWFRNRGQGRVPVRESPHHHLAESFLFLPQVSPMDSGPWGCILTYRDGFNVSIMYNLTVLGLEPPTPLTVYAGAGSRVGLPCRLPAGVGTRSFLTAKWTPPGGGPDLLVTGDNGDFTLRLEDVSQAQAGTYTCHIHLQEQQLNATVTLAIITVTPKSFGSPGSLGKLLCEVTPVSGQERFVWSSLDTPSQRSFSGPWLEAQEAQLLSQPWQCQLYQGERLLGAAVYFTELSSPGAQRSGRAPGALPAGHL
Text: A Homogeneous Time-resolved Fluorescence (HTRF) LAG3/MHC-II binding assay (Cisbio US Inc.) was used to measure the interaction between MHC-II and LAG3 in the presence of various peptides and peptide conjugates. In this assay, the interaction between Tag1-LAG3 and Tag2-MHC-II is detected by using anti-Tag1-Terbium (HTRF donor) and anti-Tag2-XL665 (HTRF acceptor). When the donor and acceptor antibodies are brought into close proximity due to LAG3 and MHC-II binding, excitation of the donor antibody triggers fluorescent resonance energy transfer (FRET) towards the acceptor antibody, which in turn emits specifically at 665 nm. This specific signal is directly proportional to the extent of LAG3/MHC-II interaction. Thus, an agent that blocks the interaction between LAG3 and MHC-II will cause a reduction in HTRF ratio.
Each of peptide conjugates BT1, BT2, BT3, BT4, BT5, BT6, BT7, BT8, BT9, and peptides LG11 (LAG3-11), LAG3-56 (SEQ ID NO:5), and LAG3-42 (SEQ ID NO:6) was tested at 3 concentrations: 100 μM, 10 μM, and 1 μM. The dashed-lines represent the HTRF ratio readout of a control ovalbumin peptide (OVA, SEQ ID NO:7) (baseline) at the respective concentrations.
peptide conjugates and LG peptides were tested in full dilution curves in the LAG3:MHCII TR-FRET Assay described above to estimate IC50. peptide conjugates were tested starting at 100 μM or 10 μM. LG peptides were tested starting at 100 μM.

[2] = target: T2, PD1 (Homo sapiens, UniProt Q15116); assay: PD1/PDL1 cell reporter assay (PathHunter, Jurkat PD1/SHP1 EFC cells co-incubated with PDL1-presenting U2OS cells); assay type: cell-based; details: FIG. 10
T2 construct: expressed in transfected cells; host or cells: Jurkat cells (PD1-EFC and SHP1-EFC) co-cultured with PDL1-presenting U2OS cells
Protocol: Jurkat cells expressing PD1 and SHP1 proteins, each fused to a fragment of enzyme fragment complementation (EFC) system, were co-incubated with PDL1-presenting U2OS cells. […] Cells in co-culture were incubated at room temperature (RT) for 2 h (PD1 assay). The assay signal was generated using the PathHunter Bioassay Detection kit. Microplates were read following signal generation using a PerkinElmer ENVISION™ instrument for chemiluminescent signal detection. Inhibitory peptides or antibodies added to the culture result in reduction of light signal. The degree of inhibition was calculated using the following formula: Percent inhibition=100%×[1−(mean RLU of test sample−mean RLU of vehicle control)/mean RLU of EC80 control−mean RLU of vehicle control)].
Peptide conjugates BT1-BT11 were tested at three concentrations: 3.6 μM, 10.8 μM, 32.5 μM in triplicate wells. peptide conjugates were dissolved in DMSO and serially diluted in assay buffer. The highest concentration that can be tested in this assay was 32.5 μM peptide conjugate (1% DMSO).
Peptides LD12 (SEQ ID NO:9), LD10 (SEQ ID NO:1), and LD16 (SEQ ID NO:10) were tested at three concentrations: 11 μM, 33 μM, 100 μM in triplicate. LD peptides were dissolved in water and serially diluted in assay buffer. RLUs were measured at the end of the assay, and % Inhibition (% Efficiency) was calculated using the formula above.

[3] = peptide conjugates at 3.6 μM, 10.8 μM, 32.5 μM in triplicate
[4] = LD peptides at 11 μM, 33 μM, 100 μM in triplicate

T2 sequence (Q15116 25-288): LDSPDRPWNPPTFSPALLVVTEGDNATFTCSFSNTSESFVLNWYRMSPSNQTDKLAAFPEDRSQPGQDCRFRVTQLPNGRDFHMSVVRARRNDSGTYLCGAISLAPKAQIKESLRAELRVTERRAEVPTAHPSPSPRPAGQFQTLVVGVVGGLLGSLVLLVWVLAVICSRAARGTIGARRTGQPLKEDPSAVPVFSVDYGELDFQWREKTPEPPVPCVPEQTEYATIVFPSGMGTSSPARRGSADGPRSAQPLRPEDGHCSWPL

Row | Molecule | response in dilution curve (HTRF signal) [1] | effect on HTRF signal [1] | inhibition of PD1 activity (percent inhibition of light signal) [2, 3] | other results
1 | CC[C@H](C)[C@H](NC(=O)[C@H](CO)NC(=O)[C@@H](NC(=O)[C@H](CC(C)C)NC(=O)[C@H](CCCNC(=N)N)NC(=O)[C@@H](NC(=O)[C@H](CC(N)=O)NC(=O)[C@@H](NC(=O)[C@@H](NC(=O)[C@H](C)NC(=O)[C@@H]1CCCN1C(=O)[C@H](CC(C)C)NC(=O)[C@H](CO)NC(=O)[C@H](CCC(N)=O)NC(C)=O)[C@@H](C)O)[C@@H](C)CC)C(C)C)[C@@H](C)O)C(=O)N[C@@H](CCC(N)=O)C(=O)NCC(=O)N[C@H](C(=O)N[C@H](CO)C(=O)NCCOCCOCCOCCOCCC(=O)N[C@@H](Cc1c[nH]c2ccccc12)C(=O)N[C@@H](CCC(=O)O)C(=O)NCC(=O)N[C@H](C(=O)NCC(=O)N[C@@H](CCC(N)=O)C(=O)N[C@@H](Cc1c[nH]c2ccccc12)C(=O)N[C@@H](Cc1c[nH]c2ccccc12)C(=O)N[C@@H](CC(=O)O)C(=O)N[C@@H](CCC(=O)O)C(=O)N1CCC[C@H]1C(=O)N[C@@H](Cc1c[nH]c2ccccc12)C(=O)N[C@@H](Cc1c[nH]cn1)C(=O)N[C@@H](CC(C)C)C(=O)N1CCC[C@H]1C(=O)N[C@@H](CCC(=O)O)C(=O)N[C@@H](Cc1c[nH]c2ccccc12)C(=O)N1CCC[C@H]1C(=O)N[C@@H](C)C(=O)N[C@@H](CO)C(N)=O)[C@@H](C)O)[C@@H](C)O [BT6] (Ac-QSLPATINVRLTSIQGT[dS][PEG4]WEGTGQWWDEPWHLPEWPAS-NH2) | reduced the HTRF signal | reduced the HTRF signal | did not show inhibition at any of the tested concentrations | IC50 [1]: 146 nM
2 | CC[C@H](C)[C@H](NC(=O)[C@H](CO)NC(=O)[C@@H](NC(=O)[C@H](CC(C)C)NC(=O)[C@H](CCCNC(=N)N)NC(=O)[C@@H](NC(=O)[C@H](CC(N)=O)NC(=O)[C@@H](NC(=O)[C@@H](NC(=O)[C@H](C)NC(=O)[C@@H]1CCCN1C(=O)[C@H](CC(C)C)NC(=O)[C@H](CO)NC(=O)[C@H](CCC(N)=O)NC(C)=O)[C@@H](C)O)[C@@H](C)CC)C(C)C)[C@@H](C)O)C(=O)N[C@@H](CCC(N)=O)C(=O)NCC(=O)N[C@H](C(=O)N[C@H](CO)C(=O)NCCOCCOCCOCCOCCC(=O)N[C@@H](CO)C(=O)N[C@@H](C)C(=O)N1CCC[C@H]1C(=O)N[C@@H](Cc1c[nH]c2ccccc12)C(=O)N[C@@H](CCC(=O)O)C(=O)N1CCC[C@H]1C(=O)N[C@@H](CC(C)C)C(=O)N[C@@H](Cc1c[nH]cn1)C(=O)N[C@@H](Cc1c[nH]c2ccccc12)C(=O)N1CCC[C@H]1C(=O)N[C@@H](CCC(=O)O)C(=O)N[C@@H](CC(=O)O)C(=O)N[C@@H](Cc1c[nH]c2ccccc12)C(=O)N[C@@H](Cc1c[nH]c2ccccc12)C(=O)N[C@@H](CCC(N)=O)C(=O)NCC(=O)N[C@H](C(=O)NCC(=O)N[C@@H](CCC(=O)O)C(=O)N[C@@H](Cc1c[nH]c2ccccc12)C(N)=O)[C@@H](C)O)[C@@H](C)O [BT7] (Ac-QSLPATINVRLTSIQGT[dS][PEG4]SAPWEPLHWPEDWWQGTGEW-NH2) | reduced the HTRF signal | reduced the HTRF signal | reduced the activity of PD1 at one or two of the tested concentrations | IC50 [1]: ~12.8 nM
3 | Ac-QSLPATINVRLTSIQGT(dS)^2-PEG4-QSLPATINVRLTSIQGT(dS)^2-amide (peptide 1 Ac-QSLPATINVRLTSIQGT[dS][PEG4′]; peptide 2 QSLPATINVRLTSIQGT[dS]-NH2; also: chain 1 C-terminus joined to chain 2 N-terminus via PEG4) [BT11, peptide conjugate of two LD10 peptides (reverse, reverse) separated by a PEG4 linker] | activity at 100 μM |  | reduced the activity of PD1 at one or two of the tested concentrations | response in dilution curve (HTRF signal) ([1]; listed as B11): no or activity only at 100 μM
4 | H2N-(dS)TGQISTLRVNITAPLSQ^1-PEG4-(dS)TGQISTLRVNITAPLSQ^1-amide (peptide 1 H-[dS]TGQISTLRVNITAPLSQ[PEG4′]; peptide 2 [dS]TGQISTLRVNITAPLSQ-NH2; also: chain 1 C-terminus joined to chain 2 N-terminus via PEG4) [BT9, peptide conjugate of two LD10 peptides (forward, forward) separated by a PEG4 linker] | no real effect; also recorded: no or activity only at 100 μM | behaved in this assay like a LAG3 agonist | reduced the activity of PD1 at one or two of the tested concentrations | 
5 | H2N-(dS)TGQISTLRVNITAPLSQ^1-PEG4-QSLPATINVRLTSIQGT(dS)^2-amide [BT10] | activity at 100 μM |  | reduced the activity of PD1 at one or two of the tested concentrations | response in dilution curve (HTRF signal) ([1]; listed as B10): no or activity only at 100 μM
6 | H2N-(dS)TGQISTLRVNITAPLSQ^1-PEG4-WEGTGQWWDEPWHLPEWPAS^4-amide [BT8] | agonistic activity at 100 μM | two concentrations of BT8 reduced the HTRF signal | did not show inhibition at any of the tested concentrations | 
7 | H2N-WEGTGQWWDEPWHLPEWPAS^4-PEG4-(dS)TGQISTLRVNITAPLSQ^1-amide [BT3] | agonistic activity at 100 μM and 10 μM |  | did not show inhibition at any of the tested concentrations | 
8 | LD10da: peptide LD10da (SEQ ID NO:8) (STGQISTLRVNITAPLSQ; LD10da peptide) [reference compound] | no response |  |  | 
9 | LD12: negative control peptide LD12 (SEQ ID NO:9) (CRRTSTGQISTARVNITAPLSQ; LD12 peptide) [reference compound] |  |  |  | inhibition of PD1 activity (percent inhibition of light signal) [2, 4]: did not show inhibition
10 | LD16: positive control peptide LD16 (SEQ ID NO:10) (TSTGQISTLRVNITAPLSQ; LD16 peptide) [reference compound] |  |  |  | inhibition of PD1 activity (percent inhibition of light signal) [2, 4]: Good dose-responses
11 | LG42: peptide LG42 (LAG3-42; SEQ ID NO:6) (DWNFQQWDWKKHNHLDSHVV; LAG3-42 peptide) [reference compound] | no response |  |  | 
12 | STGQISTLRVNITAPLSQ (LD10 peptide, forward orientation) [positive control peptide] |  |  |  | inhibition of PD1 activity (percent inhibition of light signal) [2, 4]: Good dose-responses

— US11338040B2, “Immunomodulatory compounds” (Leidos, Inc., priority 2020, dated 2022)
